Results from patent US7396525B2, “Care/makeup compositions comprising a 2-alkylideneaminooxyacetamide compound for stimulating the growth of the hair or eyelashes and/or slowing loss thereof” (L'Oreal, priority 2003, dated 2008).

Target: T1, PGF synthase (PGFS) (Homo sapiens, UniProt P42330)
T1 construct: made in house
T1 sequence (P42330 1-323): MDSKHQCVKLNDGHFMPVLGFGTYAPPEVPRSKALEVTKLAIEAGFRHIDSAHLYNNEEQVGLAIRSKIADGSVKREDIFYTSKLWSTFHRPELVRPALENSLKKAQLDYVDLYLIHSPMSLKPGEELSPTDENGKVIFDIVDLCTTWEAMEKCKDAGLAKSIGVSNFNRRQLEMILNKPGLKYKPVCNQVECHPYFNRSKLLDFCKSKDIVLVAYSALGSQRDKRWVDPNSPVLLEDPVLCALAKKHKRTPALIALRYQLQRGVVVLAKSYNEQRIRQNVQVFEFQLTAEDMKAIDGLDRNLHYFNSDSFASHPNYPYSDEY
Assay: Test on PGF synthase (spectrophotometric, 340 nm, 9,10-phenanthrenequinone/β-NADPH)
Format: biochemical
Procedure: The enzyme PGFS is obtained as disclosed in FR-A-02/05067, at a concentration of 0.5 mg/ml, in suspension in an appropriate medium, and is blocked at −80° C. For the requirements of the test, this suspension is defrosted and stored in ice.
Furthermore, a Tris 100 mM, pH=6.5, buffer comprising 20 μM of 9,10-phenanthrenequinone*(P2896, Sigma-Aldrich, L'isle D'Abeau Chesne, BP 701, 38297, Saint Quentin Fallavier) and 100 μM of β-NADPH (N1630, Sigma-Aldrich, L'isle D'Abeau Chesne, BP 701, 38297, Saint Quentin Fallavier) is prepared in a brown bottle (exclusion of light). *A mother solution assaying 1 mM is prepared in absolute ethanol and is brought to 40° C.; the bottle is placed in an ultrasonic bath to facilitate the dissolution of the product.
0.950 ml of this buffer (brought beforehand to 37° C.) is introduced into the cell of a spectrophotometer (Perkin-Elmer, Lambda 2) thermostatically controlled at 37° C., the wavelength of which for the measurement is adjusted to 340 nm. 0.05 ml of enzymatic suspension at 37° C. is introduced into the cell concomitantly with the recording (corresponding to a fall in optical density at 340 nm). The maximum rate of reaction is noted.

IC50: 50 to 100 µM
Compound: C/C(=N/OCC(=O)Nc1ccccc1)c1cccs1 [Compound 1, N-Phenyl-2({[(1Z)-1-(thien-2-yl)-ethylidene]amino}oxy)acetamide]
